Usually IC50 stands for the concentration needed to halve the response being measured. A higher IC50 goes with a need for much substance.

The target of this experiment is p53-MDM2 interaction (GST-MDM2 protein aa 23-117 / biotinylated p53 wt peptide) (Homo sapiens (Human), UniProt Q00987). The experiment in a line: MDM2-p53 Inhibition AlphaScreen. As to conditions: 20 nM GST-MDM2 (aa 23-117), 20 nM biotinylated p53 wt peptide. It is filed as biochemical. The source says: MDM2-p53 Inhibition AlphaScreen
Consider `COc1cc(C(=O)O)ccc1N1CC[C@H]2[C@@H](C1=O)[C@H](c1cccc(Cl)c1F)[C@]1(C(=O)Nc3cc(Cl)ccc31)N2CC1CCC1` [Compound I-200], for which half-maximal inhibition (IC50) required 134 nM.

Molecule `CC(C)(C)CN1[C@H]2CCN(c3ccc(C(=O)O)cc3)C(=O)[C@H]2[C@H](c2cccc(Cl)c2F)[C@]12C(=O)Nc1cc(Cl)ccc12` [Compound I-202] had an IC50 of 48 nM.

In turn, `O=C(O)c1ccc(N2CC[C@H]3[C@@H](C2=O)[C@H](c2cccc(Cl)c2F)[C@]2(C(=O)Nc4cc(Br)ccc42)N3CC2CC2)cc1` [Compound I-204] showed an IC50 of 15 nM.

In the case of `Cc1cc(N2CC[C@H]3[C@@H](C2=O)[C@H](c2cccc(Cl)c2F)[C@]2(C(=O)Nc4cc(Cl)ccc42)N3CC2CC2)cc(C)c1C(=O)O` [Compound I-206], the IC50 is 46 nM.

In turn, `O=C(O)c1ccc(CN2CC[C@H]3[C@@H](C2=O)[C@H](c2cccc(Cl)c2F)[C@]2(C(=O)Nc4cc(Cl)ccc42)N3CC2CC2)cc1` [Compound I-208] came in with an IC50 of 210 nM.

Molecule `CC(C)(C)CN1[C@H]2CCN(Cc3ccc(C(=O)O)cc3)C(=O)[C@H]2[C@H](c2cccc(Cl)c2F)[C@]12C(=O)Nc1cc(Cl)ccc12` [Compound I-210] yielded a half-inhibitory concentration (IC50) of 158 nM.

The molecule `CCOc1cccc(CN2[C@H]3CCN(Cc4ccc(C(=O)O)cc4)C(=O)[C@H]3[C@H](c3cccc(Cl)c3F)[C@]23C(=O)Nc2cc(Cl)ccc23)c1` [Compound I-212] yielded an IC50 of 21 nM.

The molecule `COc1cccc(CN2[C@H]3CCN(Cc4ccc(C(=O)O)cc4)C(=O)[C@H]3[C@H](c3cccc(Cl)c3F)[C@]23C(=O)Nc2cc(Cl)ccc23)c1` [Compound I-214] gave an IC50 of 34 nM.

Take `O=C(O)c1ccc(N2C[C@H]3[C@@H](C2=O)[C@H](c2cccc(Cl)c2F)[C@]2(C(=O)Nc4cc(Cl)ccc42)N3CC2CC2)cc1` [Compound I-216]: it took 6 nM to reach half-maximal inhibition (IC50).

For `O=C(O)c1ccc(N2C[C@H]3[C@@H](C2=O)[C@H](c2cccc(Cl)c2F)[C@]2(C(=O)Nc4cc(Cl)ccc42)N3CC2CC2)cc1` [Compound I-217], the IC50 amounted to 5 nM.

The molecule `O=C(O)c1ccc(N2C[C@@H]3[C@H](C2=O)[C@@H](c2cccc(Cl)c2F)[C@@]2(C(=O)Nc4cc(Cl)ccc42)N3CC2CC2)cc1` [Compound I-218] came in with an IC50 of 460 nM.

As to `COc1cc(C(=O)O)ccc1N1C[C@H]2[C@@H](C1=O)[C@H](c1cccc(Cl)c1F)[C@]1(C(=O)Nc3cc(Cl)ccc31)N2CC1CC1` [Compound I-219], the IC50 is 31 nM.

`O=C(O)c1ccc(N2C[C@H]3[C@@H](C2=O)[C@H](c2cccc(Cl)c2F)[C@]2(C(=O)Nc4cc(Cl)ccc42)N3CC2CCC2)cc1` [Compound I-221] had an IC50 of 7 nM.

`O=C(O)c1ccc(N2C[C@@H]3[C@H](C2=O)[C@@H](c2cccc(Cl)c2F)[C@@]2(C(=O)Nc4cc(Cl)ccc42)N3CC2CCC2)cc1` [Compound I-223] yielded an IC50 of 271 nM.

As for `COCCN1[C@H]2CN(c3ccc(C(=O)O)cc3)C(=O)[C@H]2[C@H](c2cccc(Cl)c2F)[C@]12C(=O)Nc1cc(Cl)ccc12` [Compound I-224], the IC50 turned out to be 17 nM.

With `O=C(O)c1ccc(N2C[C@H]3[C@@H](C2=O)[C@H](c2cccc(Cl)c2F)[C@]2(C(=O)Nc4cc(Cl)ccc42)N3CCC(F)(F)F)cc1` [Compound I-226], half-maximal inhibition (IC50) required 12 nM.

As to `CC(C)(C)CN1[C@H]2CN(c3ccc(C(=O)O)cc3)C(=O)[C@H]2[C@H](c2cccc(Cl)c2F)[C@]12C(=O)Nc1cc(Cl)ccc12` [Compound I-228], half-maximal inhibition (IC50) was put at 11 nM.

Take `CC(C)(C)CN1[C@H]2CN(c3ccc(C(=O)O)cc3)C(=O)[C@H]2[C@H](c2cccc(Cl)c2F)[C@]12C(=O)Nc1cc(Cl)ccc12` [Compound I-229]: 5 nM corresponded to half-maximal inhibition (IC50).

For `O=C(O)c1ccc(N2C[C@H]3[C@@H](C2=O)[C@H](c2cccc(Cl)c2F)[C@]2(C(=O)Nc4cc(Cl)ccc42)N3CC2CC(F)(F)C2)cc1` [Compound I-230], 5 nM corresponded to half-maximal inhibition (IC50).

Molecule `O=C(O)c1csc(N2C[C@H]3[C@@H](C2=O)[C@H](c2cccc(Cl)c2F)[C@]2(C(=O)Nc4cc(Cl)ccc42)N3CC2CC2)n1` [Compound I-233] had an IC50 of 9 nM.

For the origin of these results see patent US10576064B2, “Spiro[3H-indole-3,2′-pyrrolidin]-2(1H)-one compounds and derivatives as MDM2-P53 inhibitors” (Boehringer Ingelheim International GmbH, priority 2014, dated 2020).
